Read-outs that look alike come from different tables or passages of the source.
Experiments:
[1] = tested on: Luc-40L mesothelioma cancer cells; assay: Luc-40L mesothelioma model, survival (Example 4); type: in vivo, C57BL/6 mice; conditions: compared to saline, VIC-008 20 μg, AMD3100 1 μg/g body weight, once a week for four weeks
[2] = tested on: Luc-AE17 mesothelioma cancer cells; assay: Luc-AE17 mesothelioma model, survival (Example 4); type: in vivo, C57BL/6 mice; conditions: compared to saline, VIC-008 20 μg, AMD3100 1 μg/g body weight, once a week for four weeks
[3] = tested on: 40L mouse mesothelioma cell line; assay: 40L intraperitoneal malignant mesothelioma model: tumor weight and survival (Example 5); type: in vivo, C57BL/6 mice; conditions: compared to saline
[4] = tested on: AE17 mouse mesothelioma cell line; assay: AE17 intraperitoneal malignant mesothelioma model: tumor weight and survival (Example 5); type: in vivo, C57BL/6 mice; conditions: compared to saline
[5] = tested on: 40L mouse mesothelioma cell line; assay: Immune profiling by flow cytometry of spleens and tumors of 40L tumor-bearing mice; type: in vivo, C57BL/6 mice
[6] = tested on: AE17 mouse mesothelioma cell line; assay: Immune profiling by flow cytometry of spleens, lymph nodes and tumors of AE17 tumor-bearing mice; type: in vivo, C57BL/6 mice
[7] = tested on: 40L mouse mesothelioma cell line; assay: Ex vivo restimulation with recombinant mesothelin, intracellular IFN-γ in CD8+ T cells, 40L mice; parameters: species or system C57BL/6 mice; conditions: splenic CD8+ T cells, compared to saline
[8] = tested on: AE17 mouse mesothelioma cell line; assay: Ex vivo restimulation with recombinant mesothelin, intracellular IFN-γ in CD8+ T cells, AE17 mice; parameters: species or system C57BL/6 mice; conditions: compared to saline
Foxp3^+ Treg cells = conditions: AMD3100 5 μg/ml, 24 hours
[9] = spleens, 40L, compared to saline
[10] = tumors, 40L, compared to saline
[11] = lymph nodes, AE17, compared to saline
[12] = spleens, AE17, compared to saline
[13] = tumors, AE17, compared to saline

c1cc(CN2CCCNCCNCCCNCC2)ccc1CN1CCCNCCNCCCNCC1 [AMD3100, 1,1′-[1,4-phenylenebis(methylene)]bis[1,4,8,11-tetraazacyclotetradecane]]
survival of tumor-bearing mice [1]: slight effect on survival | survival of tumor-bearing mice [2]: slight effect on survival | animal survival [3]: only modest benefit to survival | animal survival [4]: only modest benefit to survival | proportions of Treg cells ([5]; spleens of 40L tumor-bearing mice): did not alter | proportion of CD8+ T cells in total live cells [5, 9]: did not increase | proportion of PD-1-expressing CD8+ T cells [5, 9]: significantly fewer | IL-2+ CD40L+ cells in the Foxp3+ CD25− Treg population ([5]; tumors of 40L mice): significantly more cells | ratio of CD25− cells to CD25+ cells within the Foxp3+ population ([5]; tumors of 40L mice): significantly increased | proportion of CD8+ T cells in total live cells [5, 10]: did not increase | proportion of PD-1-expressing CD8+ T cells [5, 10]: significantly fewer | proportions of Treg [5, 10]: significantly decreased | ratio of CD8+ T cells to Treg [5, 10]: increased | IL-2+ CD40L+ cells in the Foxp3+ CD25− Treg population ([6]; lymph nodes of AE17 mice): significantly more cells | cell ratio of CD8+ T cells to Treg cells [6, 11]: significantly increased | proportion of CD8+ T cells in total live cells [6, 11]: did not increase | proportion of PD-1-expressing CD8+ T cells [6, 11]: significantly fewer | ratio of CD25− cells to CD25+ cells within the Foxp3+ population ([6]; lymph nodes, AE17 model): significantly increased | Treg in the lymph nodes ([6]; lymph nodes, AE17 tumor-bearing mice): generally reduced | proportion of CD8+ T cells in total live cells [6, 12]: did not increase | proportion of PD-1-expressing CD8+ T cells [6, 12]: significantly fewer | proportion of CD8+ T cells in total live cells [6, 13]: did not increase | proportion of PD-1-expressing CD8+ T cells [6, 13]: significantly fewer | proportions of Treg [6, 13]: significantly decreased | ratio of CD8+ T cells to Treg [6, 13]: increased | mesothelin-specific IFN-γ expression in CD8+ T cells [7]: did not enhance | mesothelin-specific IFN-γ expression in CD8+ T cells ([8]; lymph node CD8+ T cells): did not enhance | mesothelin-specific IFN-γ expression in CD8+ T cells ([8]; splenic CD8+ T cells): did not enhance | ratio of the proportion of CD25− cells to CD25+ cells in the Foxp3+ CD4+ population (Foxp3^+ Treg cells; no anti-CD3/CD28 stimulation): did not change | conversion of Foxp3+ CD25− Treg into IL-2+ CD40L+ cells (Foxp3^+ Treg cells; with anti-CD3/CD28 stimulation): converted more | ratio of the proportion of CD25− cells to CD25+ cells in the Foxp3+ CD4+ population (Foxp3^+ Treg cells; with anti-CD3/CD28 stimulation): significantly increased

Reference: patent publication US12540165B2, “HSP fusion protein with anti-chemorepellant agent for treatment of cancer” (The General Hospital Corporation, priority 2016, dated 2026)
